Data from patent publication US8420591B2, “MUC1 and galectin-3” (Dana-Farber Cancer Institute, Inc., priority 2006, dated 2013).
pKd: −log10 of the molar value. Each block holds one molecule with its values, some of them ahead of it. Where no end group is shown, it is not given here.

Legend:
MUC1-C/ED = biological target: T1, MUC1-C/ED (Homo sapiens, UniProt P15941); assay: In vitro binding assay: hFc-MUC1-C/ED incubated with GST-galectin-3 deletion mutants, glutathione pull-down; settings: immunoblot anti-MUC1-C/ED
T1 construct: made in house; host or cells: CHO-K1
T1 sequence (P15941 1098-1155): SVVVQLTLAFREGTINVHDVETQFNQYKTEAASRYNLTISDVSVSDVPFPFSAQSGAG
Experimental: (§1) In vitro binding assays. hFc and hFc-MUC1-C/ED were incubated with purified galectin-3 in lysis buffer for 1 hour at 4° C. The reaction products were precipitated with protein G-Sepharose™ and immunoblotted with anti-galectin-3. In other studies, hFc-MUC1-C/ED was incubated with GST-galectin-3 deletion mutants. The reaction products were precipitated with glutathione-sepharose 4B and immunoblotted with anti-MUC1-C/ED (Ren et al., 2004).

[1] = biological target: T2, purified recombinant galectin-3 (Homo sapiens, UniProt P17931, P64H/T98P); assay: In vitro binding assay: hFc proteins incubated with purified galectin-3, protein G precipitation, anti-galectin-3 immunoblot; settings: 1 hour at 4° C.; protein G-Sepharose precipitation
T2 construct: GST fusion proteins with full-length galectin-3 or certain deletion mutants were prepared; made in house; host or cells: E. coli
T2 sequence (P17931 whole entry P64H/T98P, the tested form may be a part): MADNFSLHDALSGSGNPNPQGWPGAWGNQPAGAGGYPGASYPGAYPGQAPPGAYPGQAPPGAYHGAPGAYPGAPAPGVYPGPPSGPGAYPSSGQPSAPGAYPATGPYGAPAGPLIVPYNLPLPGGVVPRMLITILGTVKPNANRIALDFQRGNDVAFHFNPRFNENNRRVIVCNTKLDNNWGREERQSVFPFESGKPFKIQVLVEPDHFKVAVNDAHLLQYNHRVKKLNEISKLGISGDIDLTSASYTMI
Experimental: as §1

galectin-3(63-250) = biological target: T3, galectin-3(63-250) (Homo sapiens, UniProt P17931, T98P); assay: Surface plasmon resonance (BIAcore): binding of MUC1-C/ED to immobilized galectin-3(63-250); settings: galectin-3(63-250) immobilized on sensor chip, 25° C., 1:1 binding with a drifting base model, read-out: dissociation constant (KD) for binding to galectin-3(63-250)
T3 construct: made in house; host or cells: E. coli
T3 sequence (P17931 with tags, fused parts or gaps T98P): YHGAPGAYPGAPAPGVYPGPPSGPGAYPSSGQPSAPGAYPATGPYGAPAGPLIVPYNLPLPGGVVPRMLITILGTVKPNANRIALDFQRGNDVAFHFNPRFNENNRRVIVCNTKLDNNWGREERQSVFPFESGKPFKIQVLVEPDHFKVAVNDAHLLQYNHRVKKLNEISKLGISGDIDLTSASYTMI
Experimental: (§2) Surface plasmon resonance analysis. Surface plasmon resonance measurements were determined using a BIACORE™ 3000 instrument at 25° C. Galectin-3 and galectin-3(63-250) were covalently coupled to CM5 Biacore™ sensor chips (500-1000 RU) at 30 μg/ml using the Biacore™ Amine Coupling kit. hFc-MUC1-C/ED and hFc diluted in running buffer (50 mM Tris-HCl, pH 7.4, 150 mM NaCl, 0.005% NP-40) were injected across galectin-3, galectin-3(63-250) or control flow cells at a rate of 30 μl/min. Regeneration of the sensor surface was performed with a 30-second pulse of 100 mM lactose. Association and dissociation kinetic constants were calculated by BIAevaluation™ software using 1:1 binding with a drifting base model.

galectin-3 = biological target: T4, galectin-3 (Homo sapiens, UniProt P17931); assay: Surface plasmon resonance (BIAcore): binding of MUC1-C/ED to immobilized galectin-3; settings: galectin-3 immobilized on sensor chip, 25° C., 1:1 binding with a drifting base model, read-out: dissociation constant (KD) for binding to galectin-3
T4 construct: GST fusion proteins with full-length galectin-3 or certain deletion mutants were prepared; made in house; host or cells: E. coli
T4 sequence (P17931 whole entry P64H/T98P, the tested form may be a part): as the sequence (P17931 whole entry P64H/T98P, the tested form may be a part) above
Experimental: as §2

EGFR and MUC1 clustering = assay: Confocal microscopy of EGF-induced colocalization of EGFR and MUC1 in ZR-75-1 cells; assay type: cell-based, human; settings: EGF for 5 min
Experimental: (§3) Cell culture. Human breast cancer (ZR-75-1, BT549) and lung cancer (CRL-5985, CRL-5909) cells were grown in RPMI1640 medium supplemented with 10% fetal bovine serum (FBS), 100 units/ml penicillin and 100 μg/ml streptomycin. The human breast cancer ([…], MCF-7), prostate cancer (LnCAP, DU145, PC3), lung cancer (A549), kidney epithelial (293) and Chinese hamster ovary (CHO-K1) cells were cultured in Dulbecco's Modified Eagle's medium (DMEM) supplemented with 10% FBS, antibiotics and 1 mM L-glutamine. The glycosylation deficient CHO-Lec2 and CHO-Lec8 cells (ATCC, Manassas, Va.) were grown in alpha minimum essential medium containing 10% FBS and antibiotics. In certain studies, cells were cultured in medium with 0.1% FBS for 24 hours and then stimulated with 100 ng/ml epidermal growth factor (EGF) (Calbiochem-Novabiochem, La Jolla, Calif.) for 5 minutes at 37° C.
Immunofluorescence microscopy. Cells were fixed in 3.7% formaldehyde, permeabilized in 0.2% Triton™ X-100 and post-fixed in 3.7% formaldehyde. The cells were blocked with 10% normal goat serum and stained with antibodies specific for MUC1-N (MAb DF3) and antibodies specific for EGFR (Santa Cruz Biotechnology, Santa Cruz, Calif.), followed by fluorescein-conjugated antibodies specific for rabbit IgG or Texas Red-conjugated antibodies specific for mouse IgG (Jackson ImmunoResearch Laboratories, West Grove, Pa.). […]

[2] = tested on: MUC1 and EGFR interaction; assay: EGF-stimulated association of MUC1 and EGFR in ZR-75-1 cells (anti-MUC1-N precipitates immunoblotted); assay type: cell-based, human; settings: EGF for 5 min, co-immunoprecipitation
Experimental: as §3
Immunoblotting and precipitates. Lysates were prepared from subconfluent cells as described (Li et al., 2001). Immunoblot analysis was performed with antibodies specific for MUC1-C (Ab5; Neomarkers, Fremont, Calif.), galectin-3 (Abcam, Cambridge, Mass.), β-actin (Sigma-Aldrich, St. Louis, Mo.), epidermal growth factor receptor (EGFR) (Santa Cruz Biotechnology, Santa Cruz, Calif.), and MUC1-N (DF3) (Ren et al., 2004). Immune complexes were prepared as described with antibodies specific for MUC1-C and MUC1-N (Li et al., 1998). […]

miR-322 [3] = assay: Galectin-3 mRNA stability assay after actinomycin D in transfected BT549/vector cells; assay type: cell-based, human; settings: BT549/vector cells transfected with oligo, then actinomycin D; quantitative RT-PCR
Experimental: mRNA stability assays. […] Total RNA was isolated and analyzed for galectin-3 and GAPDH mRNA levels by quantitative RT-PCT. The half life of galectin-3 mRNA was calculated using linear regression analysis. Antisense inhibition of miR-322. An antisense 2'-O-methyl oligoribonucleotide […] NO:20) against miR-322 and a scrambled 2'-O-methyl oligoribonucleotide […] NO:21) (Integrated DNA Technologies) were transfected into BT549 cells (50 pmol/10,000 cells) in the presence of LipofectamineTM 2000. At 72 hours after transfection, the cells were analyzed for galectin-3 expression.

miR-322 [4] = assay: Antisense inhibition of miR-322: galectin-3 expression in BT549/vector cells; assay type: cell-based, human; settings: 72 h after transfection
Experimental: Immunoblotting and precipitates. Lysates were prepared from subconfluent cells as described (Li et al., 2001). Immunoblot analysis was performed with antibodies specific for MUC1-C (Ab5; Neomarkers, Fremont, Calif.), galectin-3 (Abcam, Cambridge, Mass.), β-actin (Sigma-Aldrich, St. Louis, Mo.), epidermal growth factor receptor (EGFR) (Santa Cruz Biotechnology, Santa Cruz, Calif.), and MUC1-N (DF3) (Ren et al., 2004). Immune complexes were prepared as described with antibodies specific for MUC1-C and MUC1-N (Li et al., 1998). For GST “pull-down” assays, GST or GST-galectin-3 was incubated with cell lysates for 2 hours at 4° C. and precipitated with glutathione-Sepharose™ 4B. Precipitates were subjected to immunoblotting with anti-MUC1-C, anti-galectin-3 (Santa Cruz Biotechnology, Santa Cruz, Calif.), anti-MUC1-N (DF3) (Ren et al., 2004), anti-EGFR (Santa Cruz Biotechnology), or anti-β-actin.
Quantitative real-time PCR. […] Quantification of galectin-3 transcripts was performed with primer pairs […] […] Relative gene expression was determined using the comparative ddCT (threshold) method with GAPDH as the internal control.
Antisense inhibition of miR-322. […] At 72 hours after transfection, the cells were analyzed for galectin-3 expression.

binding of MUC1-C/ED to GST-galectin-3 fusion proteins (pull-down) (MUC1-C/ED): pulled-down
Molecule: GST-galectin-3(63-250): GST fusion of galectin-3 amino acids 63-250 that contains the CRD

binding of MUC1-C/ED to GST-galectin-3 fusion proteins (pull-down) (MUC1-C/ED): no detectable binding
Molecule: GST-galectin-3(1-62): GST fusion of galectin-3 deletion mutant 1-62 that includes the ND

binding of MUC1-C/ED to GST-galectin-3 fusion proteins (pull-down) (MUC1-C/ED): no detectable binding
Molecule: GST-galectin-3(1-138): GST fusion of galectin-3 deletion mutant 1-138 that includes the ND

binding of purified recombinant galectin-3 (immunoblot of adsorbates) [1]: binding of galectin-3 to hFc-MUC1-C/ED
pKd (galectin-3(63-250)): 8.01
pKd (galectin-3): 7.95
Molecule: hFc-MUC1-C/ED: MUC1-C extracellular domain (58 amino acids) fused to human Fc, secreted from CHO-K1 cells (SVVVQLTLAFREGTINVHDVETQFNQYKTEAASRYNLTISDVSVSDVPFPFSAQSGAG; not fully specified (N-terminus); also: fused to dimerising human Fc)

Molecule: OC[C@H]1O[C@@](CO)(O[C@H]2O[C@H](CO)[C@@H](O)[C@H](O)[C@H]2O)[C@@H](O)[C@@H]1O [sucrose]
EGF-induced colocalization of EGFR and MUC1 in clusters (EGFR and MUC1 clustering): not sucrose
EGF-stimulated binding of MUC1 and EGFR [2]: not sucrose

Molecule: scrambled oligo: scrambled 2′-O-methyl oligoribonucleotide (CACGGAUCUAGGUCGUAACGUAGG) (SEQ ID NO:21), control (all 2'-O-methyl, backbone not given here) [reference compound]
half-life of galectin-3 transcripts (miR-322 [3]): 13.0 h

Molecule: anti-miR-322: antisense 2′-O-methyl oligoribonucleotide (GGUAUAGCAGCGCCUCACGUUUUG) (SEQ ID NO:20) against miR-322 (all 2'-O-methyl, backbone not given here)
galectin-3 expression at the protein level (miR-322 [4]; immunoblotting): upregulates
galectin-3 expression at the mRNA level (miR-322 [4]; quantitative RT-PCR): upregulates
half-life of galectin-3 transcripts (miR-322 [3]): 19.5 h

Molecule: OC[C@H]1O[C@@H](O[C@H]2[C@H](O)[C@@H](O)C(O)O[C@@H]2CO)[C@H](O)[C@@H](O)[C@H]1O (stereo partly drawn) [lactose]
EGF-induced colocalization of EGFR and MUC1 in clusters (EGFR and MUC1 clustering): blocked
EGF-stimulated binding of MUC1 and EGFR [2]: attenuated

binding of MUC1-C/ED to GST-galectin-3 fusion proteins (pull-down) (MUC1-C/ED): pulled-down
Molecule: GST-galectin-3: GST fusion protein with full-length galectin-3
